Test results: the NIST ThermoML archive (doi:10.1016/j.jct.2018.07.031)
± gives the expanded uncertainty stated by the source.

Columns and labels:
[1] = xn = mol fraction of the nth substance listed; settings: x1 = 0.333; for surface tension liquid-gas: Drop volume; for viscosity / electrical conductivity / speed of sound / mass density: 100 kPa, Liquid; for viscosity: Capillary tube (Ostwald / Ubbelohde) method; for electrical conductivity: Frequency=0.002 MHz, Alternating current cell with electrodes; for speed of sound: Frequency=3 MHz, Single path-length method; for mass density: Vibrating tube method
[2] = molar heat capacity at constant pressure; xn = mol fraction of the nth substance listed; settings: 100 kPa, Liquid, DSC, x1 = 0.333
[3] = refractive index (Na D-line) (dimensionless); xn = mol fraction of the nth substance listed; settings: 100 kPa, Liquid, Standard Abbe refractometry, x1 = 0.333

C[N+](C)(C)CCO.[Cl-] [choline chloride] + OCC(O)CO
Settings	electrical conductivity, [1] [S/m]	mass density, [1] [kg/m3]	molar heat capacity at constant pressure, [2] [J/K/mol]	refractive index, [3]	speed of sound, [1] [m/s]	surface tension liquid-gas, [1] [mN/m]	viscosity, [1] [mPa·s]
278.15 K	0.026 ± 0.0005	1207.05 ± 2.7	211.5 ± 8.2	–	2049.6 ± 2.1	68.01 ± 0.75	1511 ± 88
280.65 K	0.032 ± 0.0006	1205.6 ± 2.7	212.5 ± 8.2	–	2042.8 ± 2.1	67.9 ± 0.75	1211 ± 66
283.15 K	0.0406 ± 0.0008	1204.2 ± 2.7	213.5 ± 8.3	1.48809 ± 0.00051	2036.2 ± 2.1	67.77 ± 0.75	982.4 ± 50
285.65 K	0.0491 ± 0.001	1202.8 ± 2.7	214.5 ± 8.3	1.4875 ± 0.00051	2029.9 ± 2.1	67.65 ± 0.74	801.5 ± 39
288.15 K	0.0587 ± 0.0012	1201.4 ± 2.7	215 ± 8.3	1.48698 ± 0.00051	2024 ± 2.1	67.5 ± 0.74	658.4 ± 30
290.65 K	0.0703 ± 0.0014	1200 ± 2.7	216 ± 8.4	1.48632 ± 0.00051	2018.2 ± 2.1	67.34 ± 0.74	543.7 ± 23
293.15 K	0.0839 ± 0.0017	1198.55 ± 2.7	217 ± 8.4	1.48574 ± 0.00051	2012.6 ± 2.1	67.2 ± 0.74	452.6 ± 18
295.65 K	0.0992 ± 0.002	1197.15 ± 2.7	217.5 ± 8.4	1.48514 ± 0.00051	2006.9 ± 2.1	67.1 ± 0.74	378.5 ± 15
298.15 K	0.117 ± 0.002	1195.75 ± 2.7	218.5 ± 8.5	1.48455 ± 0.00051	2001.3 ± 2.1	66.95 ± 0.74	319.7 ± 12
300.65 K	0.136 ± 0.003	1194.3 ± 2.7	219 ± 8.5	1.48396 ± 0.00051	1995.8 ± 2.1	66.81 ± 0.74	271.4 ± 9.3
303.15 K	0.158 ± 0.003	1192.9 ± 2.7	220 ± 8.5	1.48337 ± 0.00051	1990.2 ± 2.1	66.7 ± 0.74	232.1 ± 7.6
305.65 K	0.182 ± 0.004	1191.5 ± 2.7	221 ± 8.6	1.48278 ± 0.00051	1984.7 ± 2.1	66.57 ± 0.73	199 ± 6.2
308.15 K	0.21 ± 0.004	1190.15 ± 2.7	221.5 ± 8.6	1.48218 ± 0.00051	1979.2 ± 2.1	66.43 ± 0.73	171.6 ± 5.1
310.65 K	0.24 ± 0.005	1188.75 ± 2.7	222.5 ± 8.6	1.48159 ± 0.00051	1973.8 ± 2.1	66.31 ± 0.73	149 ± 4.2
313.15 K	0.276 ± 0.006	1187.4 ± 2.7	223.5 ± 8.7	1.48098 ± 0.00051	1968.3 ± 2.1	66.18 ± 0.73	130 ± 3.5
315.65 K	0.314 ± 0.006	1186 ± 2.7	224 ± 8.7	1.4804 ± 0.00051	1962.8 ± 2.1	66.05 ± 0.73	113.8 ± 2.9
318.15 K	0.352 ± 0.007	1184.65 ± 2.7	225 ± 8.7	1.4798 ± 0.00051	1957.4 ± 2.1	65.93 ± 0.73	100 ± 2.5
320.65 K	0.394 ± 0.008	1183.25 ± 2.7	226 ± 8.8	1.47921 ± 0.00051	1951.8 ± 2.1	65.74 ± 0.73	88.43 ± 2.1
323.15 K	0.439 ± 0.009	1181.9 ± 2.7	227 ± 8.8	1.4786 ± 0.00051	1946.3 ± 2.1	65.62 ± 0.72	78.39 ± 1.8
325.65 K	0.487 ± 0.01	1180.5 ± 2.7	228 ± 8.8	1.47801 ± 0.00051	1940.7 ± 2.1	65.48 ± 0.72	69.46 ± 1.6
328.15 K	0.544 ± 0.011	1179.1 ± 2.7	228.5 ± 8.8	1.47741 ± 0.00051	1935.2 ± 2.1	65.38 ± 0.72	62.06 ± 1.4
330.65 K	0.603 ± 0.012	1177.7 ± 2.6	229 ± 8.9	1.47681 ± 0.00051	1929.6 ± 2.1	65.23 ± 0.72	55.63 ± 1.2
333.15 K	0.662 ± 0.013	1176.35 ± 2.6	230 ± 8.9	1.47622 ± 0.00051	1924.1 ± 2.1	65.1 ± 0.72	50.05 ± 1.1
335.65 K	0.729 ± 0.015	1174.95 ± 2.6	231 ± 8.9	1.47564 ± 0.00051	1918.5 ± 2.1	64.97 ± 0.72	45.19 ± 1
338.15 K	0.801 ± 0.016	1173.55 ± 2.6	232 ± 9	1.47504 ± 0.00051	1912.9 ± 2.1	64.84 ± 0.72	40.94 ± 0.93
